According to patent US8592603B2, “Synthesis of 2-(4-aminophenyl) benzothiazole derivatives and use thereof” (Kaohsiung Medical University, priority 2011, dated 2013):

Columns and labels:
ERK = experiment: Western blot analysis of MAPK phosphorylation: ERK; type: cell-based, human; conditions: BCC cells, pretreatment 30 min before 4 μM 6f-UVA; oligomycin 25 μM, ATP 1×10^−4M (FIG. 6B)
Experimental: (A) After exposure to different concentration of 6f-UVA, cell lysates were collected and immunoblotted with specific antibodies as indicated. For the internal control, the same amounts of protein extract were also probed with antibody against actin. (B) As a control, the expression level of p-ERK was determined in the presence of oligomycin (25 μM) and ATP (1×10^−4M)
Total cell extracts from cultured BCC cells were obtained by lysing the cells in ice-cold RIPA buffer (1×PBS, 1% NP-40, 0.5% sodium deoxycholate, 0.1% SDS) containing 100 μg/mL PMSF, 2 μg/mL aprotinin, 2 μg/mL leupeptin and 100 μg/mL NaF. After centrifugation at 14,000 g for 30 min, protein in the supernatants was quantified by Bradford method (Bio-Rad). Forty micrograms of protein per lane was applied in 10% SDS-poly-acrylamide gel. After electrophoresis, protein was transferred from the gel to polyvinylidene difluoride (PVDF) membrane (Millipore, Bedford, Mass.). The membranes were blocked at room temperature for 1 h in PBS+0.1% Tween 20 (PBS-T) containing 5% skim milk. After being briefly rinsed with PBS-T, the blots were probed with respective primary antibodies at room temperature for 2 h or at 4° C. overnight. Rabbit polyclonal antibodies against JNK (46 kDa), p38 (38 kDa), ERK (42, 44 kDa), and mouse monoclonal antibody against p-JNK, p-p38, p-ERK were purchased from Santa Cruz Biotechnology (Santa Cruz, Calif.). Mouse monoclonal antibody against actin was purchased from Chemicon Int. Inc. (Temecula, Calif.). For the blocking test, 25 μM oligomycin (Sigma, a mitochondria-specific F0F1 ATP synthase inhibitor) or 1×10^−4M ATP (Sigma) was added to the media 30 min before treated with 6f-UVA, respectively. The membrane was incubated with the corresponding horseradish peroxidase-labeled secondary antibody (Santa Cruz Biotechnology) at room temperature for 1 h. […] The relative amounts of specific proteins were quantified by densitometry scanning of X-ray films and analyzed by Eagle Eye Image System (Stratagene, La Jolla, Calif.)

BCC cells [1] = experiment: Sub-G1 region analysis (PI, flow cytometry); type: cell-based, human; conditions: 4 μM for 4 hours, 1 J/cm^2 UVA, 24 h after irradiation
Experimental: BCC cells were treated with compounds at 4 μM and 1 J/cm^2 UVA. Twenty-four hours after irradiation, cells were harvested by trypsinization and centrifugation. Cell pellets were resuspended in 50% cold ethanol and fixed at −20° C. After fixation, cells were washed once with cold PBS and incubated in 0.5 mL of PBS containing 100 μg/mL RNase A for 20 min at 37° C. Cells were harvested by centrifugation at 400 g for 5 min, and 250 μL of PBS containing 50 μg/mL propidium iodide (PI) was added to the pellet. Thirty minutes later, the DNA contents of 10,000 events were measured by FACSscan flow cytometer (Elite ESP, Beckman Coulter, Brea, Calif.). Histograms were analyzed using Windows Multiple Document Interface software (WinMDI). Cells with DNA content less than that in untreated cells in G0/G1 were considered apoptotic. To investigate the effects of compounds 6 on cell cycle progression of BCC cells, the DNA content of cell nuclei was measured by flow cytometric analysis. […] BCC cells were treated with 4 μM agents for 4 hours followed by 1 J/cm^2 UVA irradiation. Twenty-four hours after irradiation, the PI reagent was used. Approximately 10000 cells from each group were analyzed with the FACScan flow cytometer. The apoptotic effects in 2.2% (control), 6.5% (6a), 13.4% (6b), 29.2% (6c), 24.4% (6d), 6.5% (6e), 35.4% (6f), 13.6% (6g), 13.8% (6h), 14.8% (6i) and 6.4% (6j) of sub-G1 DNA peak were obtained (% represented the percentage of cell counts).

BCC cells [2] = experiment: Determination of intracellular ROS level (DCFH-DA); type: cell-based, human; conditions: BCC cells treated with 4 μM 6f-UVA, catalase 800 U/mL pretreatment
Experimental: (A) 6f-UVA induced ROS generation in BCC cells. Histogram of fluorescence vs cell count in BCC cells with various concentrations of 6f-UVA and stained with DCFH-DA. As a control, ROS was measured in the presence of catalase, a H2O2 scavenger. (B) The ΔΨmt of BCC cells after exposure to 6f-UVA. Cells were treated with 0, 2, and 4 μM Formula 6f for 4 h followed by 1 J/cm2 UVA irradiation, then stained with DiOC6 and analyzed immediately by flow cytometry as described under Materials and Methods. The number in M1 indicates the percentage of cells with reduced ΔΨmt. Approximately 10000 cells from each group were analyzed by flow cytometry. (C) Relative ATP levels were calculated as the percentage of the 0 μM level. Similar results were obtained in three independent experiments. *p<0.05, ** p<0.01 as compared with the control.
To evaluate intracellular reactive oxygen species (ROS) levels, 2′,7′-dichlorofluorescein diacetate (DCFH-DA, Molecular Probes) fluorescent dye was used to clarify this issue. The nonpolar DCFH-DA is converted to the polar derivative DCFH by esterases when it is taken up by the cell. DCFH is nonfluorescent but is rapidly oxidized to the highly fluorescent DCF by intracellular H2O2 or nitric oxide. […] The fluorescence of the samples was measured with a flow cytometer. The 2′,7′-dichlorofluorescein (DCF) data were recorded using FL-1 photomultiplier.

Row | melting point | Molecule | ERK activation after pretreatment (ERK) | sub-G1 DNA peak (apoptotic effects, percentage of cell counts) (BCC cells [1]) | effect of catalase on increased ROS production (BCC cells [2])
1 |  | Nc1ncnc2c1ncn2[C@@H]1O[C@H](COP(=O)(O)OP(=O)(O)OP(=O)(O)O)[C@@H](O)[C@H]1O [ATP] | not ATP increased the ERK activation |  | 
2 |  | Nc1ccc(-c2nc3ccccc3s2)cc1 [Formula 6a, 2-(4-Aminophenyl)benzothiazole] |  | 6.5% | 
3 |  | Cc1ccc2nc(-c3ccc(N)cc3)sc2c1 [Formula 6b, 2-(4-Aminophenyl)-6-methylbenzothiazole] |  | 13.4% | 
4 | 154 to 156 °C | CCc1ccc2nc(-c3ccc(N)cc3)sc2c1 [Formula 6c, 2-(4-Aminophenyl)-6-ethylbenzothiazole] |  | 29.2% | 
5 | 142 to 144 °C | COc1cccc2nc(-c3ccc(N)cc3)sc12 [Formula 6d, 2-(4-Aminophenyl)-7-methoxybenzothiazole] |  | 24.4% | 
6 |  | COc1ccc2nc(-c3ccc(N)cc3)sc2c1 [Formula 6e, 2-(4-Aminophenyl)-6-methoxybenzothiazole] |  | 6.5% | 
7 |  | Cc1cc(-c2nc3ccccc3s2)ccc1N [Formula 6g, 2-(4-Amino-3-methylphenyl)benzothiazole] |  | 13.6% | 
8 | 171 to 173 °C | CCc1ccc2nc(-c3ccc(N)c(C)c3)sc2c1 [Formula 6h, 2-(4-Amino-3-methylphenyl)-6-ethylbenzothiazole] |  | 13.8% | 
9 | 151 to 153 °C | COc1ccc2nc(-c3ccc(N)c(C)c3)sc2c1 [Formula 6i, 2-(4-Amino-3-methylphenyl)-6-methoxybenzothiazole] |  | 14.8% | 
10 | 152 to 154 °C | Cc1cc(-c2nc3ccc(C(F)(F)F)cc3s2)ccc1N [Formula 6j, 2-(4-Amino-3-methylphenyl)-6-trifluoromethylbenzothiazole] |  | 6.4% | 
11 |  | CC[C@H]1/C=C/C=C/C[C@@H](C)[C@H](O)[C@@](C)(O)C(=O)[C@@H](C)[C@H](O)[C@@H](C)C(=O)[C@@H](C)[C@H](O)[C@@H](C)/C=C/C(=O)O[C@@H]2[C@H](C)[C@H](CC1)O[C@]1(CC[C@H](C)[C@H](C[C@@H](C)O)O1)[C@H]2C [oligomycin] | increased the ERK activation |  | 
12 |  | catalase: an effective H2O2 scavenger (Sigma) (protein, UniProt P00432 2-527, looked up) Catalase: ADNRDPASDQMKHWKEQRAAQKPDVLTTGGGNPVGDKLNSLTVGPRGPLLVQDVVFTDEMAHFDRERIPERVVHAKGAGAFGYFEVTHDITRYSKAKVFEHIGKRTPIAVRFSTVAGESGSADTVRDPRGFAVKFYTEDGNWDLVGNNTPIFFIRDALLFPSFIHSQKRNPQTHLKDPDMVWDFWSLRPESLHQVSFLFSDRGIPDGHRHMNGYGSHTFKLVNANGEAVYCKFHYKTDQGIKNLSVEDAARLAHEDPDYGLRDLFNAIATGNYPSWTLYIQVMTFSEAEIFPFNPFDLTKVWPHGDYPLIPVGKLVLNRNPVNYFAEVEQLAFDPSNMPPGIEPSPDKMLQGRLFAYPDTHRHRLGPNYLQIPVNCPYRARVANYQRDGPMCMMDNQGGAPNYYPNSFSAPEHQPSALEHRTHFSGDVQRFNSANDDNVTQVRTFYLKVLNEEQRKRLCENIAGHLKDAQLFIQKKAVKNFSDVHPEYGSRIQALLDKYNEEKPKNAVHTYVQHGSHLSAREKANL |  |  | significantly abrogated
